# According to publication PMC5329948, “Caspase vinyl sulfone small molecule inhibitors prevent axonal degeneration in human neurons and reverse cognitive impairment in Caspase-6-overexpressing mice” (Molecular Neurodegeneration, 2017):
# Tested on: Casp6-overexpressing KI/Cre mice
# Assay: Novel object recognition task in Casp6-overexpressing KI/Cre mice
# Assay type: in vivo, mouse
# Conditions: 20 mg/kg i.p.
# Experimental: Casp6 transgenic mouse model: All animal procedures followed the Canadian Council on Animal Care guidelines and were approved by the McGill Animal care committees. Sixteen to 20 month old C57BL/6 J mice were bred and aged in the pathogen-free Goodman Cancer Research Centre Mouse Transgenic Facility at McGill University. Mice were housed in a temperature-controlled room at 22 °C and were kept on a 12 h light/dark cycle. Food and water were available at libitum. Casp6 overexpressing mice (KI/Cre) express Casp6p20p10 under the CAG promoter (CMV immediate early enchancer/chicken β-actin promoter fusion) in the CA1 pyramidal cell layer of the hippocampus under the control of calmodulin kinase IIa (CAMKIIa)-regulated Cre expression.
# Only males were used and littermates from each genotype (wild type (WT)/WT, WT/Cre, & knock-in (KI/)Cre) were tested together. The experimenter was blind to genotype and treatment groups. Mice were administered 20 mg/kg NWL-117 or physiological saline (0.9% NaCl) by intraperitoneal injections two times 48 h apart. […] Blood brain barrier permeability of NWL-117 caspase inhibitor: Briefly, 18–22 month old Casp6 mice were anesthetised with isoflurane, warmed with a heating blanket, and their physiological vitals (heart rate, body temperature, and respiration) monitored. The skin over the mouse’s neck was shaved, xylocaine applied, and an incision was made along the midline. Under a surgical microscope, the right carotid artery was gently separated from surrounding tissue. Two suture threads were placed at the proximal and distal ends of the carotid, and a small incision was made along the carotid wall. A micro-catheter (attached to a 1 ml syringe controlled by a micropump) was inserted and pushed to the entrance of the internal carotid artery. The catheter was secured in place using suture thread. […] The number of times touching each object was manually recorded, while the total distance, percent time moving, and number of entries into virtual cells were recorded using the HVS 2100 automated video tracking system (HVS Image, Buckingham, UK). […]
smiles,measurement,setting,value
CCC(C)[C@H](NC(=O)[C@H](CCC(=O)O)NC(=O)[C@@H](NC(=O)OCc1ccccc1)C(C)C)C(=O)N[C@H](/C=C/S(C)(=O)=O)CC(=O)O (stereo partly drawn) [NWL-117],locomotor or exploratory activities,two injections,no effect
same,NOR performance in KI/Cre mice,two injections 48 h apart,regained normal NOR performance
same,NOR performance in control mice,"two injections 48 h apart, WT/WT and WT/Cre",performed equally to saline-treated mice
